Data reported in PMC9850959 (European journal of medicinal chemistry, 2019).
“Also recorded” adds a separate entry of the source. Counter-ions that a name gives are not always drawn. Each block holds one molecule with its values, some of them ahead of it.

Tests used:
[1] = cited from earlier work
[2] = cited from earlier work; remark: listed apart in the source
human nSMase2 = target: T1, human nSMase2 (Homo sapiens, UniProt Q9NY59); experiment: fluorescence-based coupled nSMase2 assay; format: biochemical; conditions: for nSMase2 inhibitory activity (in words): compared with DPTIP or parent analog
T1 sequence (Q9NY59 1-655): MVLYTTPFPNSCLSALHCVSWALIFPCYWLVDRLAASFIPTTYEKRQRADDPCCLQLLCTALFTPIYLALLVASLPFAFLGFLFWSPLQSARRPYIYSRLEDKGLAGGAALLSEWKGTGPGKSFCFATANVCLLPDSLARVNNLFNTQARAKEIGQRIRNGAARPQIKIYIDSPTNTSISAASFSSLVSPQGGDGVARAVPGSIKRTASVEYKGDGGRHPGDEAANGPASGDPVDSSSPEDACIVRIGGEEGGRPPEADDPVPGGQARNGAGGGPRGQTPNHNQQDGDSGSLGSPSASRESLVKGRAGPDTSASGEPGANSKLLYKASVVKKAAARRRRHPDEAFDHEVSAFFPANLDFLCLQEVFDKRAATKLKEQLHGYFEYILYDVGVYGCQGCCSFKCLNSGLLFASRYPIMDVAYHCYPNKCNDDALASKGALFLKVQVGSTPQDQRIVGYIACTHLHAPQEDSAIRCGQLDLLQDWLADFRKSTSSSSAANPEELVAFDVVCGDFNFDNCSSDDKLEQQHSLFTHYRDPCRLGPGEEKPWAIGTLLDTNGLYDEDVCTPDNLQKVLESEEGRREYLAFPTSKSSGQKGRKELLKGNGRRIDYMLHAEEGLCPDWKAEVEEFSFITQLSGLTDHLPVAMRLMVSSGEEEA

[3] = test system: AP, choline oxidase, and horseradish peroxidase; experiment: counter screen assay without nSMase2 and sphingomyelin, with phosphorylcholine; format: biochemical
[4] = glucuronidation stability in mouse liver microsomes in the presence of UDPGA; format: in vitro ADME
[5] = phase I metabolic stability in mouse liver microsomes; format: in vitro ADME
[6] = phase I metabolic stability in human liver microsomes; format: in vitro ADME
[7] = oral pharmacokinetics in mice; format: in vivo
nSMase2 = conditions: with respect to sphingomyelin; cited from earlier work
[8] = test system: IL-1β-induced astrocyte-derived extracellular vesicle release; conditions: GFAP-GFP mice, brain injury model; cited from earlier work
[9] = test system: primary astrocyte cultures; conditions: cited from earlier work

inhibition in the counter assay (in words) [3]: no longer distinguishable | loss of inhibitory potency relative to DPTIP (human nSMase2): 100 fold
Structure (SMILES): Oc1ccc(-c2nc(-c3ccccc3)c(-c3cccs3)[nH]2)cc1 [Compound 6b, 4-(4-Phenyl-5-(thiophen-2-yl)-1H-imidazol-2-yl)phenol]

inhibition in the counter assay (in words) [3]: potent inhibition
Structure (SMILES): COc1cc(-c2nc(-c3ccccc3)c(-c3cccs3)[nH]2)cc(O)c1O [Compound 6c, 3-Methoxy-5-(4-phenyl-5-(thiophen-2-yl)-1H-imidazol-2-yl)benzene-1,2-diol]

inhibition in the counter assay (in words) [3]: potent inhibition
Structure (SMILES): Oc1cc(-c2nc(-c3ccccc3)c(-c3cccs3)[nH]2)cc(O)c1O [Compound 6d, 5-(4-Phenyl-5-(thiophen-2-yl)-1H-imidazol-2-yl)benzene-1,2,3-triol]

nSMase2 inhibitory activity (in words) (human nSMase2): complete loss of activity
Structure (SMILES): Oc1c(Cl)cc(-c2nc(-c3ccccc3)c(-c3cccs3)[nH]2)cc1Cl [Compound 6e, 2,6-Dichloro-4-(4-phenyl-5-(thiophen-2-yl)-1H-imidazol-2-yl)phenol]

nSMase2 inhibitory activity (in words) (human nSMase2): completely inactive
Structure (SMILES): COc1cc(-c2nc(-c3ccccc3)c(-c3cccs3)[nH]2)cc(OC)c1OC [Compound 6g]

nSMase2 inhibitory activity (in words) (human nSMase2): complete loss of potency
Structure (SMILES): Oc1ccccc1-c1nc(-c2ccccc2)c(-c2cccs2)[nH]1 [Compound 6i]

nSMase2 inhibitory activity (in words) (human nSMase2): complete loss of potency
Structure (SMILES): Oc1cccc(-c2nc(-c3ccccc3)c(-c3cccs3)[nH]2)c1 [Compound 6j]

nSMase2 inhibitory activity (in words) (human nSMase2): decrease in potency
Structure (SMILES): Oc1c(OC2CCCC2)cc(-c2nc(-c3ccccc3)c(-c3cccs3)[nH]2)cc1OC1CCCC1 [Compound 9c, 2,6-Bis(cyclopentyloxy)-4-(5-phenyl-4-(thiophen-2-yl)-1H-imidazol-2-yl)phenol]

phase I metabolic stability (in words) [5]: metabolically stable | major metabolite in plasma ([7]; mouse plasma after oral administration): glucuronide | CNS penetration (in words) ([7]; oral, mice): negligible CNS penetration | remaining at 1 h ([4]; mouse, liver microsomes, pH 7.5): < 20% | phase I metabolic stability (in words) [6]: metabolically stable
Structure (SMILES): COc1cc(-c2nc(C(C)C)c(C(C)C)[nH]2)cc(OC)c1O [Compound 25b, 4-(4,5-Diisopropyl-1H-imidazol-2-yl)-2,6-dimethoxyphenol hydrochloride]
plasma exposure compared to DPTIP (in words) ([7]; oral administration, mice): higher plasma exposure; also recorded: superior plasma pharmacokinetics

The next lines start with the molecule.

Structure (SMILES): O=c1[nH]c(=S)[nH]c(-c2ccccc2)c1Cc1c(O)ccc2ccccc12 [Cambinol]
solubility compared to GW4869 (in words) [1]: better solubility compared to GW4869 | metabolic stability (in words) [2]: metabolically unstable

Structure (SMILES): COc1cc(-c2ncc[nH]2)cc(OC)c1O [Compound 3a, 4-(1H-Imidazol-2-yl)-2,6-dimethoxyphenol]
loss of inhibitory potency relative to DPTIP (human nSMase2): 10 fold

Structure (SMILES): CC(C)Oc1cc(-c2nc(-c3ccccc3)c(-c3cccs3)[nH]2)cc(OC(C)C)c1O [Compound 9b, 2,6-Diisopropoxy-4-(4-phenyl-5-(thiophen-2-yl)-1H-imidazol-2-yl)phenol]
resistance to glucuronidation (in words) ([4]; mouse liver microsomes, UDPGA): completely resistant to glucuronidation; also recorded: complete resistance to glucuronidation

Structure (SMILES): Oc1c(OCC(F)(F)F)cc(-c2nc(-c3ccccc3)c(-c3cccs3)[nH]2)cc1OCC(F)(F)F [Compound 12, 4-(4-Phenyl-5-(thiophen-2-yl)-1H-imidazol-2-yl)-2,6-bis(2,2,2-trifluoroethoxy)phenol]
phase I metabolic stability (in words) [5]: metabolic stability was completely regained | phase I metabolic stability (in words) [6]: metabolic stability was completely regained

Structure (SMILES): CC(C)(C)Oc1cc(-c2nc(-c3ccccc3)c(-c3cccs3)[nH]2)cc(OC(C)(C)C)c1O [Compound 16, 2,6-Di-t-butoxy-4-(4-phenyl-5-(thiophen-2-yl)-1H-imidazol-2-yl)phenol]
nSMase2 inhibitory activity (in words) (human nSMase2): decrease in potency

Structure (SMILES): COc1cc(-c2nccs2)cc(OC)c1O [Compound 19, 2,6-Dimethoxy-4-(thiazol-2-yl)phenol]
nSMase2 inhibitory activity (in words) (human nSMase2): substantial decrease in potency

Structure (SMILES): COc1cc(C2=NCCN2)cc(OC)c1O [Compound 22, 4-(4,5-Dihydro-1H-imidazol-2-yl)-2,6-dimethoxyphenol hydrochloride]
nSMase2 inhibitory activity (in words) (human nSMase2): complete loss of potency

Structure (SMILES): COc1cc(-c2nc(-c3cccs3)c(-c3ccccc3)[nH]2)cc(OC)c1O [DPTIP, 2,6-dimethoxy-4-[4-phenyl-5-(2-thienyl)-1H-imidazol-2-yl]phenol]
mechanism of inhibition (nSMase2): noncompetitive | phase I metabolic stability (in words) [5]: stable | loss of the parent compound ([4]; mouse liver microsomes, UDPGA, 1 h): 33% | phase I metabolic stability (in words) [6]: stable | IL-1β-induced astrocyte-derived extracellular vesicle release (in words) [8]: attenuate | extracellular vesicle release (in words) [9]: dose-dependently inhibit extracellular vesicle release

Structure (SMILES): O=C(/C=C\c1ccc(/C=C\C(=O)Nc2ccc(C3=NCCN3)cc2)cc1)Nc1ccc(C2=NCCN2)cc1 [GW4869]
aqueous solubility (in words) [1]: negligible aqueous solubility
